Results as given in article PMC5556071, “ATR inhibition facilitates targeting of leukemia dependence on convergent nucleotide biosynthetic pathways” (Nature Communications, 2017).
Values joined by “and” are separate entries in the source; they are usually repeats but may differ in a detail not shown here. Equal values may be shown once.

Tests used:
[1] = test system: p185BCR-ABL Arf–/– pre-B-ALL; assay: Systemic primary pre-B-ALL leukemia model, survival, bioluminescence, body weight; assay type: in vivo
Description: For development of systemic leukemia model, C57Bl/6 female mice were injected intravenously with 50,000 firefly luciferase expressing p185^BCR-ABL Arf ^−/− pre-B-ALL cells[12], [31]. The leukemic burden was monitored using bioluminescence imaging. All drug treatments were performed in an oral formulation consisting of PEG-200, Transcutol, Labrasol and Tween-80 blended in a ratio of 5:3:1:1. The oral gavage volume was 50 µl per dose (a detailed description is available in the Supplementary Information).
All C57BL/6 female mice were purchased from the UCLA Radiation Oncology breeding colony. […] For oral administration, single agent or combination of drugs were solubilized in a formulation consisting of the following: PEG-200: Transcutol: Labrasol: Tween-80 mixed in 5:3:1:1 ratio. For i.p. administration, the drugs were solubilized in PEG-400 and 1 mM Tris-HCl in a 1:1 (v:v) ratio. Dasatinib (LC Laboratories) was solubilized in 80 mM citric acid (pH 3.1) and was administered at a dose of 10 mg kg^–1 by oral gavage. 2 × 10^5 luciferase expressing p185^BCR-ABL Arf ^−/− pre-B-ALL cells were injected intravenously into C57BL/6 female mice for leukemia induction. […] The mice were observed daily and those that became moribund during the trials, (paralysis of hind limbs, significant body weight loss) were sacrificed immediately.
Mice were anesthetized with 2% isoflurane followed by intraperitoneal injection of 50 μl (50 mg ml^−1) substrate D-luciferin (Sigma, #L9504). The mice were imaged with the IVIS 100 Bioluminescence Imaging scanner 10 min after luciferin administration. All mice were imaged in groups of five with 1-minute exposure time, and the images were acquired at low binning.

asynchronous CEM cells = assay: Quantitative global proteomics (nLC-MS/MS), asynchronous cells; assay type: cell-based, human
Description: To investigate the molecular mechanisms underlying the metabolic consequences of ATR and dCK inhibition, global changes in protein expression were assessed in CEM cells using quantitative nano-LC tandem MS (nLC-MS/MS) (Fig. 2a). Chemical isotope coding following reductive dimethylation of peptide N-termini and lysine primary amines with differential stable isotopes (light:medium:heavy) was used to compare expression of experimental (VE-822, dCKi and VE-822 + dCKi) samples to controls (untreated, NT) by mixing equal proportions for triplex nLC-MS/MS quantitative analyses. The data set was filtered for proteins identified in all treatment groups in three independent experiments with coefficients of variation <20%. This yielded 1757 proteins with relative fold changes in treated vs. untreated cells ranging from 0.45 to 1.83. […] Protein levels of both RNR subunits, RRM1 and RRM2, as well as thymidylate synthase decreased by more than 20% following ATR inhibition (Fig. 2c). Changes in the expression of de novo enzymes observed in synchronous cells also occurred with ATR inhibition in asynchronous CEM cells (Fig. 2d and Supplementary Data 3), thereby arguing against the possibility of experimental artifacts introduced by Palbociclib-mediated cell cycle synchronization. The reduction in RRM2 levels induced by ATR inhibition was accompanied by an ~ 50% decrease in the phosphorylation of RRM2 on threonine 33 (pT33) (Fig. 2e), a phosphosite previously linked to the RRM2 stability. […]
Proteomic analyzes. CCRF-CEM cells were treated ± with a CDK4/6 inhibitor, PD-0332991 (Selleckchem) for 18 h to arrest at G1 phase. Cells were then washed twice with PBS and released in fresh media with treatment at a density of 1 x 10^6 cells/mL. Cells were collected at 12 h, washed twice with ice-cold PBS, and lysed by trituration using 1 mL per 5 x 10^7 cells of 0.5% sodium deoxycholate, 12 mM sodium lauryl sarcosine, and 50 mM triethylammonium bicarbonate, pH 8.0. Lysates were heated at 95 °C for 5 min and water bath sonicated at room temperature (RT) for 5 min. Bicinchoninic acid protein assay (Pierce) was performed to determine protein concentration. Disulfide bridges were reduced with 5 mM tris(2-carboxyethyl)phosphine (final concentration) at RT for 30 min with subsequent treatment with 10 mM iodoacetamide (final concentration) at RT in the dark for 30 min. Solutions were diluted 1:5 (v:v) with 50 mM triethylammonium bicarbonate. Proteins were cleaved with sequencing grade trypsin (Promega) at 1:100 (enzyme:protein) for 4 h at 37 °C followed by a second aliquot of trypsin 1:100 (enzyme:protein) overnight at 37 °C. Samples were acidified with 0.5% trifluoroacetic acid (final concentration), vortexed rapidly for 5 min, and centrifuged (16,000 x g for 5 min, RT) to pellet sodium deoxycholate. Supernatants were transferred to new microcentrifuge tubes and 20 µg of total peptide were desalted using C18 StageTips as previously described2. On-column dimethyl labeling using C18 StageTips was performed as previously described3. Briefly, StageTips were equilibrated with 20 μL of 250 mM 2-(N-morpholino)ethanesulfonic acid (MES) pH 5.5. Tryptic peptides were dimethyl labeled using 60 mM sodium cyanoborohydride, 0.4% formaldehyde, and 250 mM MES pH 5.5 for 10 min. Dimethyl labeled peptides were eluted from StageTips using 20 μL of 80% acetonitrile with 0.1% trifluoroacetic acid and lyophilized to dryness. […]

[2] = 1 µM VE-822, 12 h, analyses #1-#3

CNCc1ccc(-c2cc(-c3nc(-c4ccc(S(=O)(=O)C(C)C)cc4)cnc3N)on2)cc1 [VE-822]
efficacy in vivo of VE-822 alone ([1]; VE-822 40 mg kg–1 once daily): only marginally efficacious
time by which all treated mice died of leukemia ([1]; after inoculation, VE-822 40 mg kg–1 once daily): ≤ 38 days
Median survival ([1]; after treatment initiation, 40 mg kg–1 day–1 VE-822, n = 6): 32.5 days
Protein expression level normalized to control (NT): Apoptosis regulatory protein Siva (SIVA1) (asynchronous CEM cells; [2]): 0.5843 and 0.5702 and 0.5605
Protein expression level normalized to control (NT): Aspartate--tRNA ligase, cytoplasmic (DARS) (asynchronous CEM cells; [2]): 0.9056 and 0.9095
Protein expression level normalized to control (NT): Eukaryotic translation initiation factor 2 subunit 3 (EIF2S3;EIF2S3L) (asynchronous CEM cells; [2]): 0.9499 and 0.9479 and 0.9485
Protein expression level normalized to control (NT): GA-binding protein alpha chain (GABPA) (asynchronous CEM cells; [2]): 0.6147 and 0.6159 and 0.6369
observed fold decrease in total RRM2 protein (proteomic nLC-MS/MS) (asynchronous CEM cells; asynchronous CEM, VE-822 1 µM, 12 h): 0.77 fold
